Results taken from patent publication US20250207175A1, “METHOD FOR DETECTING CONTAMINATING CARBOXYLESTERASE ACTIVITY” (Boehringer Ingelheim International GmbH, priority 2022, published 2025).

Assays:
[1] = Solubility of OPTS in H2O (stock solutions, verified by light scattering); format: physicochemical; conditions: water, aqueous stock solution
Protocol: Stock solutions of the fluorogenic substrate in water were prepared. Aqueous solutions with an OPTS concentration ≥2.0 mM could be prepared. The solubility could be verified by light scattering experiments.

[2] = format: physicochemical
Text: In order to be able to determine the enzymatic activity, a substrate, 1-octanoyloxy-pyrene-3,6,8-trisulfonic acid trisodium salt (OPTS), was chosen. Its hydrolytic product, 1-hydroxypyrene-3,6,8-trisulfonic acid trisodium salt (HPTS), can be detected by fluorescence spectroscopy. The change in the fluorescence signal over time is directly related to the change in the concentration of free fluorophore. The conversion was made possible by setting up a calibration curve with a subsequent linear fit (R^2≥0.99). The experiments of the kinetics measurements with the OPTS/4-MUD substrates assay were performed in duplicates. The reaction mixture without the protein of interest, which served as the respective control, was subtracted from the protein-containing batch. The buffer used for OPTS measurements (hydrophilic substrate) contained 0.3 M HOAc, 0.3 M MES, 0.6 M TRIS and 0.6 M NaCl (4×AMT buffer; acetate, MES, TRIS). For 4-MUD substrate measurements (lipophilic substrate) 0.04 M CHAPS was added in addition. The buffer (AMT) was prepared in four-fold concentration (4×AMT) and was added at 25% (v/v) to the reaction mix. All measurements were carried out in multiwell plates with a preparation volume of 300 μL (75 μL 4×AMT buffer, 30 μL substrate, 75 μL enzyme-containing solution, x μL additive, 300 μL ad. H2O) Unless otherwise stated, all fluorescence spectroscopic measurements were performed using 96-well, clear-bottom, non-binding plates (Greiner, Austria) on a SpectraMax M3 PlateReader (Molecular Device, USA) and recorded using SoftMax Pro 7.0.3 software (Molecular Device, USA). The OPTS assay measurements were typically taken at 25° C., λex=403 nm and λem=512 nm and the 4-MUD assay measurements were taken at 25° C., λex=330 nm and λem=450 nm. For evaluation, the detected fluorescence signal for a reaction mix without protein of interest (control) was subtracted from the reaction mix with protein of interest (e.g. DS). Hydrolysis of the substrate has been measured by detecting the fluorescence intensity of the released chromophore (4-MU or HPTS) immediately following mixing in real-time for a few minutes up to 5 hours depending on fluorescence intensity. The changes in the fluorescence signal over time were subsequently converted to hydrolytic activity using previously established calibration curves with a linear fit (R^2≥0.99).
The fluorophore HPTS can be released from the substrate (here esterified caprylic acid) by enzymatic or chemical hydrolysis (acidic and alkaline hydrolysis). In order to assess the influence of pH on aqueous solutions of the substrate, 225 μL of a 33.3 μM OPTS solution was added to 75 μL each of AMT buffer (with pH=5.5 and pH=8) and the kinetics of fluorophore release were recorded for two hours.
There is a clear difference in the slope of the fluorescence signals for the different pH values. Based on the recorded calibration curves the autohydrolysis rate at pH 5.5 was calculated as 1.58*10^−7 units (μmol*min-1) and the autohydrolysis rate at pH 8.0 was calculated as 3.48*10^−6 units. Thus, the hydrolysis rate at pH 8 is about 22-times higher compared to pH 5.5, showing that hydrolysis of the fluorogenic substrate can be observed over time, at basic pH, but only at a very low level at pH 5.5. […]

[3] = OPTS assay of histidine-containing buffer controls; conditions: histidine concentrations of less than 200 μM; data not shown
Protocol: 9 different antibody (Ab1-Ab9) samples were tested using the OPTS assay. As a control, measurements were performed with the respective same buffer solution as used in the antibody sample.
Since histidine has been reported previously to mediate hydrolytic activities in aqueous solutions similar to esterases (Delort, Nguyen-Trung et al. 2006, Mason, McCracken et al. 2010, Amano, Kobayashi et al. 2014, Xu, Chen et al. 2017), samples were dialysed against 0.002% NaCl using a two-step dialysis with a molecular weight cut-off (MWCO) of 20K. For preparative dialysis, the pre-wettened dialysis cassette was filled with 2 ml antibody solution and placed in a beaker filled with 1 L NaCl (0.002% w/v) solution with gentle stirring. After one hour the 1 L NaCl solution was replaced with fresh NaCl (0.002% w/v) solution and dialysed for another two hours with gentle stirring. […] In the following the assay was performed using dialysed drug substance samples. The same solution (final solution outside the dialysis cassette) was used as control sample to be subtracted from the test sample.

lipase activity = conditions: FIG. 10 of WO 2022 049294 A1; cited from earlier work

CCCCCCCC(=O)Oc1cc(S(=O)(=O)[O-])c2ccc3c(S(=O)(=O)[O-])cc(S(=O)(=O)[O-])c4ccc1c2c43.[Na+].[Na+].[Na+] [OPTS, 1-octanoyloxy-pyrene-3,6,8-trisulfonic acid trisodium salt]
solubility [1]: ≥ 2000 µM | stability of OPTS in solvent (autohydrolysis) [2]: more stable in DMSO compared to H2O | autohydrolysis rate at pH 5.5 ([2]; 25 μM OPTS, AMT buffer pH 5.5, two hours): 1.58*10^−7 units (μmol*min-1) | autohydrolysis rate at pH 8.0 ([2]; 25 μM OPTS, AMT buffer pH 8.0, two hours): 3.48*10^−6 units | hydrolysis rate at pH 8 compared to pH 5.5 ([2]; autohydrolysis of OPTS): about 22 times | autohydrolysis of OPTS compared to 4-MUD ([2]; particularly at pH 8.0): more critical

N[C@@H](Cc1c[nH]cn1)C(=O)O [histidine]
activity of histidine buffer component in the OPTS assay [3]: low 10^−7

polyethylene glycol tert-octylphenyl ether [Triton X-100]
effect of detergent on the 4-MUD assay (lipase activity): inhibited
